Assay results as given in ChEMBL document CHEMBL5137055, “Near-Infrared Fluorescent Probes as Imaging and Theranostic Modalities for Amyloid-Beta and Tau Aggregates in Alzheimer's Disease” (J Med Chem, 2022).

Key:
[1] = target: T1, Amyloid-beta precursor protein (Homo sapiens, UniProt P05067); experiment: Binding affinity to human amyloid beta (1 to 42) oligomer measured by fluorescence polarization assay
[2] = target: Albumin (Bos taurus, UniProt P02769); experiment: Binding affinity to bovine serum albumin
[3] = target: T1, Amyloid-beta precursor protein; experiment: Binding affinity to human amyloid beta (1 to 42) monomer measured by fluorescence polarization assay
[4] = target: T1, Amyloid-beta precursor protein; experiment: Binding affinity to human amyloid beta (1 to 42) aggregates measured by fluorescence polarization assay
[5] = Binding affinity to amyloid beta (unknown origin) aggregates; parameters: species or system Homo sapiens
[6] = Binding affinity to amyloid beta (unknown origin) oligomer; parameters: species or system Homo sapiens
[7] = Binding affinity to amyloid beta (unknown origin) monomer; parameters: species or system Homo sapiens
[8] = target: T1, Amyloid-beta precursor protein; experiment: Displacement of [125I]IMPY from amyloid beta (1 to 40) (unknown origin) measured by competitive radioligand binding assay
[9] = target: T1, Amyloid-beta precursor protein; experiment: Displacement of [125I]IMPY from amyloid beta (1 to 42) (unknown origin) measured by competitive radioligand binding assay
[10] = Drug uptake in brain of Tg mouse at 2 mins post injection; format: ADME, tissue-based; conditions: read-out: Drug uptake
[11] = Binding affinity to insoluble amyloid beta (unknown origin); parameters: species or system Homo sapiens
[12] = Binding affinity to soluble amyloid beta (unknown origin); parameters: species or system Homo sapiens
[13] = Binding affinity to mouse brain amyloid beta plaques

T1 sequence (P05067 whole entry): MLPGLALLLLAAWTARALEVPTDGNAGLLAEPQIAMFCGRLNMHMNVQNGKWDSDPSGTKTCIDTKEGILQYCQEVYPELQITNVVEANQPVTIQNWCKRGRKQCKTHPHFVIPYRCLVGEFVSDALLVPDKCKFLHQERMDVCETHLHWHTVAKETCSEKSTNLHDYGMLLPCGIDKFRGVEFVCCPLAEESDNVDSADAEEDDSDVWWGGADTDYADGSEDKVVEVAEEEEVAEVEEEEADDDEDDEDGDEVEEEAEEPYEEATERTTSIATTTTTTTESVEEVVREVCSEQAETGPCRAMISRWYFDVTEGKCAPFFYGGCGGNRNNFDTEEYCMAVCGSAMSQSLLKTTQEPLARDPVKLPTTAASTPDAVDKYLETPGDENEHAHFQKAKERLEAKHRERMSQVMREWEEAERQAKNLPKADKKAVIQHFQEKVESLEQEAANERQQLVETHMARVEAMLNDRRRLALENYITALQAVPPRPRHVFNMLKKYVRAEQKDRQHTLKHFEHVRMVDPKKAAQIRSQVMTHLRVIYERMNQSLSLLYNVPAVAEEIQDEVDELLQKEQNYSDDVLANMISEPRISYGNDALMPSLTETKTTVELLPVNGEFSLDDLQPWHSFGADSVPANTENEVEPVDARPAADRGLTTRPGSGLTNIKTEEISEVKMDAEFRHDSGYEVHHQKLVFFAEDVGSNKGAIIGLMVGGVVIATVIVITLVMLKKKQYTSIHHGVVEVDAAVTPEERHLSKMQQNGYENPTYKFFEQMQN
Albumin, sequence (P02769 whole entry): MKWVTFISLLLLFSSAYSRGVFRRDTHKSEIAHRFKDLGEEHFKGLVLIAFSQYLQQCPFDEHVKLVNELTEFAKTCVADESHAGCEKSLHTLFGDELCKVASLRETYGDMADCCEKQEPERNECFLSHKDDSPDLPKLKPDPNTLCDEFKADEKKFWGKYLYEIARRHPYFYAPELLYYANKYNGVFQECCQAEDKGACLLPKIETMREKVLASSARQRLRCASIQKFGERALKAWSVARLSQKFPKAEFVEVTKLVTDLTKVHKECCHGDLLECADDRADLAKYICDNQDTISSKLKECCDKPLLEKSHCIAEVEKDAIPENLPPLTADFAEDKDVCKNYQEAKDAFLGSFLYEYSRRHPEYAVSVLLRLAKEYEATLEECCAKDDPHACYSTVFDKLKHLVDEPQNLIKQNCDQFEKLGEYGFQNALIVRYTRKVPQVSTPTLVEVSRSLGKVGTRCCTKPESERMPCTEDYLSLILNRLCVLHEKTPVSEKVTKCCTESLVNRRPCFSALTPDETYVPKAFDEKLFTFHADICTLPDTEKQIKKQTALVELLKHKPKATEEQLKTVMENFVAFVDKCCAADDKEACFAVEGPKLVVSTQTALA

Q: With `COc1cc(/C=C/C(=O)/C(Cc2cn(CCCCCCNC(=O)CCNC(=O)CCNC(=O)CO[C@H]3CC[C@@]4(C)C(=CC[C@H]5[C@@H]6CC[C@H]([C@@H](C)CCCC(C)C)[C@@]6(C)CC[C@@H]54)C3)nn2)=C(O)/C=C/c2ccc(O)c(OC)c2)ccc1O` as the molecule, how does the Kd [1] read?
A: 2170 nM

Q: And the Kd [2]?
A: 71 µM

Q: What about the Kd [3] of the same molecule?
A: 2030 nM

Q: And the Kd [4]?
A: 830 nM

Q: For `CC1=CC(C)=[N+]2C1=C(CCCN1CCNc3ccccc31)c1c(C)cc(/C=C/c3ccc(N(C)C)s3)n1[B-]2(F)F`, which Kd [5] is on record?
A: 18 nM

Q: What about the Kd [6] of the same molecule?
A: 27 nM

Q: What about the Kd [7] of the same molecule?
A: 6 nM

Q: Which Kd [8] does the source give for `CN1C(=O)C(=C/C=C/C=C/c2ccc(N(C)C)cc2)C(=O)N(C)C1=O` here?
A: 23.9 nM

Q: What about the Ki [9] of the same molecule?
A: 13.7 nM

Q: What about the tissue uptake at 2 min [10] of the same molecule?
A: 0.83 %ID/g

Q: What does the source list for `CCN(CC)c1ccc(/C=C/C2=[O+][B-](F)(F)OC(/C=C/c3ccc(N(CC)CC)nc3)=C2CCCOc2c(C)cccc2C)cn1`?
A: Kd [11]: 506 nM; Kd [12]: 7.5 nM

Q: With `CN(C)c1ccc(/C=C/C2=[O+][B-](F)(F)OC(/C=C/c3ccc(OCCOCCF)cc3)=C2)cc1` as the molecule, how does the Kd [13] read?
A: 19.7 nM
